A value given as a limit tells only on which side of the number the result lay.

Assay [1] relates to TNF-α. The assay can be described thus: Cytokine assay: TNF-α release, LPS-induced PBMC. The note with it: human PBMC, 1 μg/mL LPS, supernatant at 24 hours. The assay is classed as cell-based. Here is the method:
(§1) Frozen human peripheral blood mononucleocytes (PBMC) were thawed and centrifuged. Cryopreservation media was aspirated off of the cell pellet, and the cells were resuspended in fresh culture media (CM) comprising RPMI 1640 and 10% FBS in 96 well plates. Test article was dissolved in DMSO to form a 10 mM sample (DMSO, 100%). The 10 mM samples were diluted to 100 μM in CM (DMSO, 1%), then further diluted to 10, 1, 0.1, 0.01 μM in 200 μL of CM (n=3). Inducer (1 μg/mL) LPS for TNF-α or 20 ug/mL PHA for IFNγ, IL-2, IL-4, IL-5 and IL-10. IL-23 was induced with 100 ng/ml IFN-g+[…], using THP-1 cells. Vehicle (1% DMSO) was used as a control for this experiment. Vehicle without inducer was used as a negative control. Cells were incubated at 37° C., 5% CO2. Supernatants were extracted at 24 hours (for TNF-α, IL-2 and IFNγ) and 48 hours (for IL-4, IL-5, IL-10 and IL-23), and stored at −20° C. Supernatants were thawed and assayed for cytokine expression using the fluorochrome-labeled cytokine-specific beads and a BD FACSArray™. IL-23 was assayed using a commercial ELISA kit (R&D Systems).

In assay [2] the test system is IL-2. The assay can be described thus: Cytokine assay: IL-2 release, PHA-induced PBMC. The format is cell-based. The note with it: human PBMC, 20 ug/mL PHA, 24 hours. Here is the method:
as §1

Assay [3] concerns IL-γ. The assay is described as follows: Cytokine assay: IFNγ (IL-γ [sic]) release, PHA-induced PBMC. The assay is classed as cell-based. The note with it: human PBMC, 20 ug/mL PHA, 24 hours. Here is the method: as §1
Assay [4] deals with IL-4. The assay is described as follows: Cytokine assay: IL-4 release, PHA-induced PBMC. The format is cell-based. The note with it: human PBMC, 20 ug/mL PHA, 48 hours. The method, then:
as §1

The test system of assay [5] is IL-5. The assay can be described thus: Cytokine assay: IL-5 release, PHA-induced PBMC. The assay is classed as cell-based. The note with it: human PBMC, 20 ug/mL PHA, 48 hours. The method, then:
as §1

In assay [6] the test system is IL-10. The assay can be described thus: Cytokine assay: IL-10 release, PHA-induced PBMC. The format is cell-based. The note with it: human PBMC, 20 ug/mL PHA, 48 hours. The method, then: as §1
Assay [7] has as its system T1, PDE4 partially purified from human U-937 myeloid leukemia cells.
T1 construct: PDE4 partially purified from human U-937 myeloid leukemia cells was used
The assay can be described thus: PDE4 assay ([3H]cAMP hydrolysis). The format is biochemical. The note with it: PDE4 from U-937 cells, 1 mM cAMP, pH 7.5, 20 minutes at 25° C. The method, then:
PDE4 partially purified from human U-937 myeloid leukemia cells was used. Test article and/or vehicle was incubated with 0.2 mg enzyme and 1 mM cAMP containing 0.01 mM [3H]cAMP in Tris buffer pH 7.5 for 20 minutes at 25° C. The reaction was terminated by boiling for 2 minutes and the resulting AMP is converted to adenosine by addition of 10 mg/ml snake venom nucleotidase and further incubation at 37° C. for 10 minutes. Unhydrolyzed cAMP is bound to AG1-X2 resin, and remaining [3H]Adenosine in the aqueous phase is quantitated by scintillation counting.

In assay [8] the test system is IL-23. The assay is described as follows: Cytokine assay: IL-23 release, IFN-g + LPS induced THP-1 cells. The assay is classed as cell-based. The note with it: Homo sapiens, 100 ng/ml IFN-g + 1 mg/ml LPS, 48 hours, ELISA. Here is the method:
as §1
In general terms: ELISA stands for enzyme-linked immunosorbent assay.

The target in assay [9] is K-ATP channel. The note with it: K-ATP channel (SUR) binding; cited from earlier work.

By IC50 is commonly meant the midpoint of a concentration-inhibition curve. Regarding `CC(C)(C)OC(=O)N(c1ccc(C#N)cc1)c1ccc2c(c1)COB2O` [C1, 5-[N-tert-Butoxycarbonyl-(4-cyanophenylamino)]-1,3-dihydro-1-hydroxybenzoxaborole], the half-inhibitory concentration (IC50) in [1] is 1100 nM; in [2], 960 nM; in [3], 620 nM; in [4], above 10000 nM; in assay [5], 2420 nM; in assay [6], 5590 nM. The same compound had an IC50 in assay [7] of 2750 nM.
For the compound `N#Cc1ccc(Nc2ccc3c(c2)COB3O)cc1` [C2, 5-(4-Cyanophenylamino)-1,3-dihydro-1-hydroxybenzoxaborole], the IC50 is 1080 nM in assay [1]; 7350 nM in assay [8]; 130 nM in [2]; 1510 nM in assay [3]; above 10000 nM in assay [4]; 6830 nM in assay [5]. Further, the half-inhibitory concentration (IC50) was above 10000 nM in [6] and 414 nM in assay [7].
`CN(c1ccc(C#N)cc1)c1ccc2c(c1)COB2O` [C3, 5-[N-(4-Cyanophenyl)-N-methylamino]-1,3-dihydro-1-hydroxybenzoxaborole]: the IC50 was 1300 nM in assay [1]; 880 nM in assay [2]; 2000 nM in [3]; above 10000 nM in [4]; 3500 nM in assay [5]; 3100 nM in assay [6]. Besides, the half-inhibitory concentration (IC50) in assay [7] worked out at 387 nM.
As for `COc1nc(N(C(=O)OC(C)(C)C)c2ccc3c(c2)COB3O)ccc1C#N` [C4, tert-Butyl 5-cyano-6-methoxypyridin-2-yl(1-hydroxy-1,3-dihydrobenzo[c][1,2]oxaborol-5-yl)carbamate], the IC50 in assay [1] turned out to be 360 nM; in [8], 5770 nM; in assay [2] it was 220 nM; in assay [3] it was 370 nM; in assay [4], 33000 nM; in assay [5], 400 nM. Further, the IC50 in assay [6] was 6000 nM; in [7], 180 nM.
Consider `COc1nc(Nc2ccc3c(c2)COB3O)ccc1C#N` [C5, 6-(1-hydroxy-1,3-dihydrobenzo[c][1,2]oxaborol-5-ylamino)-2-methoxynicotinonitrile], for which the 50% inhibitory concentration (IC50) in assay [1] is 260 nM; in [8] it was 2740 nM; in assay [2], 210 nM; in assay [3], 300 nM; in [4] it was 23000 nM; in [5], 700 nM. The 50% inhibitory concentration (IC50) in [6] is 3700 nM; in [7], 340 nM.
Broadly, the pKi is the Ki on a negative log10 scale, so that one unit is a factor of ten. As for `CC1=NS(=O)(=O)c2cc(Cl)ccc2N1` [diazoxide], the pKi in assay [9] is reported as 3.8.

The values are drawn from patent publication US8470803B2, “Boron-containing small molecules” (Anacor Pharmaceuticals, Inc., priority 2008, dated 2013).
